According to PMC11489226 (Archives of Toxicology, 2024):

Molecular target: T1, CYP2C8 (Homo sapiens, UniProt P10632)
T1 construct: V5-His (vector-encoded) (C); expressed in transfected cells
T1 sequence (P10632 1-490): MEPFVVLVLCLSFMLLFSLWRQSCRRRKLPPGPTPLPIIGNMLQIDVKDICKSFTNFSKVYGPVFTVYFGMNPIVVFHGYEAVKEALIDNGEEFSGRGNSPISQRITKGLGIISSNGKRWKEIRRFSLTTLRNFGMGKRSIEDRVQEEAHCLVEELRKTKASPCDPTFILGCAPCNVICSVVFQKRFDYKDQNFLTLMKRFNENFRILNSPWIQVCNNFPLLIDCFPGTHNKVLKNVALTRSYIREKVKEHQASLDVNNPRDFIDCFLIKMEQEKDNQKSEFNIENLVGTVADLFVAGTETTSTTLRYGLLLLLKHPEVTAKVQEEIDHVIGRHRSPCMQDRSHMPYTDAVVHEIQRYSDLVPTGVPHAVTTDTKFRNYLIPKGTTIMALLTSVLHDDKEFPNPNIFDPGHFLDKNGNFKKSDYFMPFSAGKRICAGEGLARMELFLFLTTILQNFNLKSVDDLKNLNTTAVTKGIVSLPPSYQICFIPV
Assay: Metabolism in transgenic HEK293 cells expressing CYP2C8
Format: in vitro ADME
Settings: 20 µM parent PCB, 24 h, supernatant
Procedure: For the generation of transgenic cell lines, we used semi-adherent HEK293 cells (DSMZ, ACC305, human embryonic kidney cells) which were cultured on a daily basis in DMEM medium supplemented with 10% (FCS) and 1% penicillin/streptomycin. In a first step CYP1A2, CYP2C8, CYP2C9, CYP3A4, CYP2A6, and CYP2E1 cDNA were cloned into the plasmid pcDNATM3.1/V5-His TOPO® using human liver RNA as a template and using the following primers: CYP1A2 for5′-[…]-3′, CYP1A2 rev 5′-[…]-3′; CYP2C8 for 5′-[…]-3′, CYP2C8 rev 5′-[…]-3′; CYP2C9 for 5′-[…]-3′, CYP2C9 rev 5′-[…]-3′; CYP3A4 for 5′-[…]-3′, CYP3A4 rev 5′-[…]-3′, CYP2A6 for 5′-[…]-3′, CYP2A6 rev 5′-[…]-3′; CYP2E1 for 5′-[…]-3′, CYP2E1 rev 5′-[…]-3′. Final constructs were verified with Sanger DNA sequencing and restriction digestion. For transfection, 3 × 10^6 HEK293 cells were pre-incubated in a 10 cm dish in DMEM medium with 10% FCS, but without antibiotics, for 18 to 24 h. When the cells reached approximately 70% confluency, they were transfected using TransIT-LT1 transfection reagent (Biozol, Eiching, Germany). The TransIT-LT1 reagent was warmed to room temperature and vortexed. 1.63 mL Opti-MEM, 16.25 µL plasmid DNA (1 µg/µL), and 48.75 µL TransIT-LT1 reagent were mixed and incubated for 15 to 30 min. The mixture was then added dropwise to the medium of the cells, and the cells were incubated again at 37 °C and 5% CO2. After 24 h, the medium was replaced with standard medium and geneticin was added for selection (1 mg/mL). Cells were selected for 6–8 weeks in bulk culture, and single cell clones were obtained subsequently by limiting dilution. Each clone was checked for insertion by PCR using genomic DNA as a template.
Parallel samples were run without the addition of PCBs. At a confluence of 80%, PCBs (20 μM each, dissolved in ethanol) were added and cells were incubated for 24 h before harvest of supernatants. Supernatants were diluted 1:2 with 80 μL acetate buffer 0.1 M (pH = 5.3). 100 μL of this dilution were further incubated with 100 μL of ammonium acetate buffer 0.1 M (pH = 5.3) and 5 μL of β-Glucuronidase/Arylsulfatase enzyme overnight in a drying oven at 37 °C for enzymatic hydrolysis to release conjugated compounds. 50 μL of a mix of internal standards (10 ng/mL) and 600 μL of methanol were added to the samples, then mixed by vortexing for 1 min and centrifuged for 10 min at 3400g. The individual supernatants were transferred to glass LC vials and evaporated to approximately 50 μL at 45 °C under a gentle stream of nitrogen. Finally, 0.1 mol/ L ammonium acetate buffer was added to a final volume of 100 μL and then transferred to an insert for analysis. […]

Measured: Quantification of metabolites generated from PCB28, 52, and 101

Oc1cc(Cl)c(-c2ccc(Cl)cc2)cc1Cl [4-OHCB31, 2,4′,5-trichloro-4-biphenylol]
<LOQ: CYP2C8 Clone A3 | CYP2C8 Clone D8 | CYP2C8 Clone D9

Oc1cc(-c2ccc(Cl)cc2)c(Cl)cc1Cl [5-OHCB28, 2,4,4′-trichloro-5-biphenylol]
<LOQ: CYP2C8 Clone A3 | CYP2C8 Clone D8 | CYP2C8 Clone D9
